# How the values were obtained:
# Human alphaherpesvirus 1 [1] = test: Minimum inhibitory concentration required to inhibit Herpes simplex virus type 1 (strain 377) induced cytopathogenic effects by 50%.; assay type: functional
# Human alphaherpesvirus 1 [2] = test: The compound was tested in vitro for anti viral activity against Herpes simplex virus type 1 (strain 377); assay type: functional
# P388 = test: Tested for inhibitory activity against P-388 leukemia cells; assay type: functional; settings: Mus musculus, read-out: ED50 (the source's name)
# Human alphaherpesvirus 1 [3] = test: The compound was tested in vitro for definite and significant anti viral activity against Herpes simplex virus type 1 (strain 377); value indicates definite and significant antiviral activity; assay type: functional
# Human alphaherpesvirus 1 [4] = test: Minimum inhibitory concentration required to inhibit Herpes simplex virus type 1 (strain 377) induced cytopathogenic effects by 50%. (experiment 1); assay type: functional
# Human alphaherpesvirus 1 [5] = test: Minimum inhibitory concentration required to inhibit Herpes simplex virus type 1 (strain 377) induced cytopathogenic effects by 50%. (experiment 2); assay type: functional
# Human alphaherpesvirus 1 [6] = test: The compound was tested in vitro for definite and significant anti viral activity against Herpes simplex virus type 1 (strain 377) (experiment 1); value indicates definite and significant antiviral activity; assay type: functional
# Human alphaherpesvirus 1 [7] = test: The compound was tested in vitro for definite and significant anti viral activity against Herpes simplex virus type 1 (strain 377) (experiment 2); value indicates definite and significant antiviral activity; assay type: functional
# Human alphaherpesvirus 2 [8] = test: Minimum inhibitory concentration required to inhibit Herpes simplex virus type 2 (strain MS) induced cytopathogenic effects by 50%. (experiment 1); assay type: functional; settings: Human alphaherpesvirus 2, MS
# Human alphaherpesvirus 2 [9] = test: Minimum inhibitory concentration required to inhibit Herpes simplex virus type 2 (strain MS) induced cytopathogenic effects by 50%. (experiment 2); assay type: functional; settings: Human alphaherpesvirus 2, MS
# Human alphaherpesvirus 2 [10] = test: The compound was tested in vitro for definite and significant anti viral activity against Herpes simplex virus type 2 (strain MS) (experiment 1); value indicates definite and significant antiviral activity; assay type: functional
# Human alphaherpesvirus 2 [11] = test: The compound was tested in vitro for definite and significant anti viral activity against Herpes simplex virus type 2 (strain MS) (experiment 2); value indicates definite and significant antiviral activity; assay type: functional
# Human alphaherpesvirus 1 [12] = test: The compound was tested in vitro for anti viral activity against Herpes simplex virus type 1 (strain 377) (experiment 1); value indicates definite and significant antiviral activity; assay type: functional
# Human alphaherpesvirus 1 [13] = test: The compound was tested in vitro for anti viral activity against Herpes simplex virus type 1 (strain 377) (experiment 2); value indicates definite and significant antiviral activity; assay type: functional
# Homo sapiens [14] = species: Homo sapiens; test: Antiviral activity against Varicella-Zoster virus (VV) in human foreskin cell cultures in virus plaque reduction assay at 1 uM; assay type: functional
# Homo sapiens [15] = species: Homo sapiens; test: Antiviral activity against Varicella-Zoster virus (VV) in human foreskin cell cultures in virus plaque reduction assay at 10 uM; assay type: functional
# Homo sapiens [16] = species: Homo sapiens; test: Antiviral activity against Varicella-Zoster virus (VV) in human foreskin cell cultures in virus plaque reduction assay at 100 uM; assay type: functional
# Homo sapiens [17] = species: Homo sapiens; test: Antiviral activity against Varicella-Zoster virus (VV) in human foreskin cell cultures in virus plaque reduction assay at 1000 uM; assay type: functional
# Homo sapiens [18] = species: Homo sapiens; test: Antiviral activity against Varicella-Zoster virus (VV) in human foreskin cell cultures in virus plaque reduction assay at 3.2uM; assay type: functional
# Homo sapiens [19] = species: Homo sapiens; test: Antiviral activity against Varicella-Zoster virus (VV) in human foreskin cell cultures in virus plaque reduction assay at 32 uM; assay type: functional
# Homo sapiens [20] = species: Homo sapiens; test: Antiviral activity against Varicella-Zoster virus (VV) in human foreskin cell cultures in virus plaque reduction assay at 320 uM; assay type: functional
# MRC5 [21] = test: Percent reduction of CPE (plaques) at the time of harvest at 1 uM; assay type: functional, Homo sapiens
# MRC5 [22] = test: Percent reduction of CPE (plaques) at the time of harvest at 10 uM; assay type: functional, Homo sapiens
# MRC5 [23] = test: Percent reduction of CPE (plaques) at the time of harvest at 100 uM; assay type: functional, Homo sapiens
# MRC5 [24] = test: Percent reduction of CPE (plaques) at the time of harvest at 1000 uM (308 ug/mL); assay type: functional, Homo sapiens
# MRC5 [25] = test: Percent reduction of CPE (plaques) at the time of harvest at 3.2 uM; assay type: functional, Homo sapiens
# MRC5 [26] = test: Replication of human cytomegalovirus strain […] virus yield expressed as plaque forming units/mL at 1 uM; assay type: functional
# MRC5 [27] = test: Replication of human cytomegalovirus strain […] virus yield expressed as plaque forming units/mL at 10 uM; assay type: functional
# MRC5 [28] = test: Replication of human cytomegalovirus strain […] virus yield expressed as plaque forming units/mL at 100 uM; assay type: functional
# MRC5 [29] = test: Cytotoxicity (gross morphology) was evaluated at 100 uM; assay type: functional, Homo sapiens
# MRC5 [30] = test: Cytotoxicity (gross morphology) was evaluated at 32 uM; assay type: functional, Homo sapiens
# MRC5 [31] = test: (§1) Cytotoxicity was determined at 100 uM; assay type: functional, Homo sapiens
# MRC5 [32] = test: Replication of human cytomegalovirus strain […] virus yield expressed as plaque forming units/mL at 1000 uM (308 ug/mL); assay type: functional
# MRC5 [33] = test: Replication of human cytomegalovirus strain […] virus yield expressed as plaque forming units/mL at 32 uM; assay type: functional
# MRC5 [34] = test: Replication of human cytomegalovirus strain […] virus yield expressed as plaque forming units/mL at 320 uM; assay type: functional
# MRC5 [35] = test: Cytotoxicity (gross morphology) was evaluated at 1 uM; assay type: functional, Homo sapiens
# MRC5 [36] = test: Cytotoxicity (gross morphology) was evaluated at 10 uM; assay type: functional, Homo sapiens
# MRC5 [37] = test: (§2) Cytotoxicity was determined at 32 uM; assay type: functional, Homo sapiens
# MRC5 [38] = test: (§3) Cytotoxicity was determined at 320 uM; assay type: functional, Homo sapiens
# MRC5 [39] = test: Percent reduction of CPE (plaques) at the time of harvest at 320 uM; assay type: functional, Homo sapiens
# MRC5 [40] = test: Replication of human cytomegalovirus strain […] virus yield reduction assay in human diploid embryonic lung cells (MRC5) at 100 uM; assay type: functional
# MRC5 [41] = test: Replication of human cytomegalovirus strain […] virus yield reduction assay in human diploid embryonic lung cells (MRC5) at 1 uM; assay type: functional
# MRC5 [42] = test: Replication of human cytomegalovirus strain […] virus yield reduction assay in human diploid embryonic lung cells (MRC5) at 1000 uM (308 ug/mL); assay type: functional
# MRC5 [43] = test: Replication of human cytomegalovirus strain […] virus yield reduction assay in human diploid embryonic lung cells (MRC5) at 10 uM; assay type: functional
# MRC5 [44] = test: Replication of human cytomegalovirus strain […] virus yield reduction assay in human diploid embryonic lung cells (MRC5) at 3.2 uM; assay type: functional
# MRC5 [45] = test: Replication of human cytomegalovirus strain […] virus yield reduction assay in human diploid embryonic lung cells (MRC5) at 32 uM; assay type: functional
# MRC5 [46] = test: Replication of human cytomegalovirus strain […] virus yield reduction assay in human diploid embryonic lung cells (MRC5) at 320 uM; assay type: functional
# MRC5 [47] = test: Replication of human cytomegalovirus strain […] virus yield expressed as plaque forming units/mL at 3.2 uM; assay type: functional
# MRC5 [48] = test: Cytotoxicity (gross morphology) was evaluated at 3.2uM; assay type: functional, Homo sapiens
# MRC5 [49] = test: Percent reduction of CPE (plaques) at the time of harvest at 32 uM; assay type: functional, Homo sapiens
# Human alphaherpesvirus 2 [50] = test: Minimum inhibitory concentration required to inhibit Herpes simplex virus type 2 (strain MS) induced cytopathogenic effects by 50%. (experiment 1)
# Human alphaherpesvirus 2 [51] = test: Minimum inhibitory concentration required to inhibit Herpes simplex virus type 2 (strain MS) induced cytopathogenic effects by 50%. (experiment 2)
# Human alphaherpesvirus 2 [52] = test: The compound was tested in vitro for anti viral activity against Herpes simplex virus type 2 (strain MS) (experiment 1); value indicates definite and significant antiviral activity
# Human alphaherpesvirus 2 [53] = test: The compound was tested in vitro for anti viral activity against Herpes simplex virus type 2 (strain MS) (experiment 2); value indicates definite and significant antiviral activity
# Homo sapiens [54] = species: Homo sapiens; test: as §1; assay type: functional
# Homo sapiens [55] = species: Homo sapiens; test: Cytotoxicity was determined at 1000 uM; assay type: functional
# Homo sapiens [56] = species: Homo sapiens; test: as §2; assay type: functional
# Homo sapiens [57] = species: Homo sapiens; test: as §3; assay type: functional
# Homo sapiens [58] = species: Homo sapiens; test: Antiviral activity against Varicella-Zoster virus (VV) in human foreskin cell cultures in virus plaque reduction assay at 3.2 uM; assay type: functional
# Human alphaherpesvirus 2 [59] = test: Minimum inhibitory concentration required to inhibit Herpes simplex virus type 2 (strain MS) induced cytopathogenic effects by 50%.; assay type: functional
# Human alphaherpesvirus 2 [60] = test: The compound was tested in vitro for anti viral activity against Herpes simplex virus type 2 (strain MS); assay type: functional
compound,measurement,setting,value
Nc1nc(N)c2ncn(C3CC(CO)C(O)C3O)c2n1 (centres undefined),MIC50,Human alphaherpesvirus 1 [1],85 mg/L
same,Virus rating,Human alphaherpesvirus 1 [2],2.7
same,EC50,P388,39 µM
Nc1nc(Cl)c2nnn(C3CC(CO)C(O)C3O)c2n1 (centres undefined),MIC50,Human alphaherpesvirus 1 [1],100 mg/L
same,Virus rating,Human alphaherpesvirus 1 [2],0.6
same,EC50,P388,50 µM
Nc1nc(Cl)c2ncn(C3CC(CO)C(O)C3O)c2n1 (centres undefined),MIC50,Human alphaherpesvirus 1 [1],100 mg/L
same,Virus rating,Human alphaherpesvirus 1 [2],1.8
same,EC50,P388,220 µM
Nc1nc(N)c2nnn(C3CC(CO)C(O)C3O)c2n1 (centres undefined),MIC50,Human alphaherpesvirus 1 [1],66.9 mg/L
same,Virus rating,Human alphaherpesvirus 1 [3],2
same,EC50,P388,5.3 µM
COc1nc(N)nc2c1nnn2C1CC(CO)C(O)C1O (centres undefined),EC50,P388,63 µM
Nc1nc(O)c2nnn(C3CC(CO)C(O)C3O)c2n1 (centres undefined),MIC50,Human alphaherpesvirus 1 [4],60.8 mg/L
same,MIC50,Human alphaherpesvirus 1 [5],93.1 mg/L
same,Virus rating,Human alphaherpesvirus 1 [6],2.4
same,Virus rating,Human alphaherpesvirus 1 [7],2.5
same,MIC50,Human alphaherpesvirus 2 [8],92.2 mg/L
same,MIC50,Human alphaherpesvirus 2 [9],240 mg/L
same,Virus rating,Human alphaherpesvirus 2 [10],1.3
same,Virus rating,Human alphaherpesvirus 2 [11],1.1
same,EC50,P388,1.6 µM
Nc1nc(O)c2ncn(C3CC(CO)C(O)C3O)c2n1 (centres undefined),MIC50,Human alphaherpesvirus 1 [4],1.8 mg/L
same,MIC50,Human alphaherpesvirus 1 [5],3 mg/L
same,Virus rating,Human alphaherpesvirus 1 [12],5.7
same,Virus rating,Human alphaherpesvirus 1 [13],5.6
same,Reduction,Homo sapiens [14],18%
same,Reduction,Homo sapiens [15],26%
same,Reduction,Homo sapiens [16],100%
same,Reduction,Homo sapiens [17],100%
same,Reduction,Homo sapiens [18],18%
same,Reduction,Homo sapiens [19],79%
same,Reduction,Homo sapiens [20],100%
same,Reduction,MRC5 [21],0%
same,Reduction,MRC5 [22],0%
same,Reduction,MRC5 [23],80%
same,Reduction,MRC5 [24],100%
same,Reduction,MRC5 [25],0%
same,CMV yield,MRC5 [26],96000 pfu/ml
same,CMV yield,MRC5 [27],96000 pfu/ml
same,CMV yield,MRC5 [28],100 pfu/ml
same,Cytotoxicity,MRC5 [29],0
same,Cytotoxicity,MRC5 [30],0
same,Cytotoxicity,MRC5 [31],0
same,CMV yield,MRC5 [32],0 pfu/ml
same,CMV yield,MRC5 [33],12800 pfu/ml
same,CMV yield,MRC5 [34],0 pfu/ml
same,Cytotoxicity,MRC5 [35],0
same,Cytotoxicity,MRC5 [36],0
same,Cytotoxicity,MRC5 [37],0
same,Cytotoxicity,MRC5 [38],0
same,Reduction,MRC5 [39],100%
same,Virus yield reduction,MRC5 [40],3.2
same,Virus yield reduction,MRC5 [41],0.2
same,Virus yield reduction,MRC5 [42],5.2
same,Virus yield reduction,MRC5 [43],0.2
same,Virus yield reduction,MRC5 [44],0.2
same,Virus yield reduction,MRC5 [45],1.1
same,Virus yield reduction,MRC5 [46],5.2
same,EC50,P388,8.9 µM
same,CMV yield,MRC5 [47],108000 pfu/ml
same,Cytotoxicity,MRC5 [48],0
same,Reduction,MRC5 [49],25%
same,MIC50,Human alphaherpesvirus 2 [50],22.8 mg/L
same,MIC50,Human alphaherpesvirus 2 [51],23.5 mg/L
same,Virus rating,Human alphaherpesvirus 2 [52],2.6
same,Virus rating,Human alphaherpesvirus 2 [53],3.9
Nc1nc2c(ncn2COCCO)c(=O)[nH]1 [ACYCLOVIR],Cytotoxicity,Homo sapiens [54],0
same,Cytotoxicity,Homo sapiens [55],0
same,Cytotoxicity,Homo sapiens [56],0
same,Cytotoxicity,Homo sapiens [57],0
same,Reduction,Homo sapiens [14],35%
same,Reduction,Homo sapiens [15],41%
same,Reduction,Homo sapiens [16],94%
same,Reduction,Homo sapiens [17],100%
same,Reduction,Homo sapiens [58],32%
same,Reduction,Homo sapiens [19],79%
same,Reduction,Homo sapiens [20],100%
Nc1nc2c(ncn2COC(CO)CO)c(=O)[nH]1 [GANCICLOVIR],Cytotoxicity,Homo sapiens [54],0
same,Reduction,Homo sapiens [55],0
same,Cytotoxicity,Homo sapiens [56],0
same,Cytotoxicity,Homo sapiens [57],0
same,Reduction,Homo sapiens [15],35%
same,Reduction,Homo sapiens [16],82%
same,Reduction,Homo sapiens [17],97%
same,Reduction,Homo sapiens [58],24%
same,Reduction,Homo sapiens [19],56%
same,Reduction,Homo sapiens [20],97%
Nc1ncnc2c1ncn2[C@@H]1O[C@H](CO)[C@@H](O)[C@@H]1O [VIDARABINE],MIC50,Human alphaherpesvirus 1 [1],9.8 mg/L
same,Virus rating,Human alphaherpesvirus 1 [2],3.1
same,MIC50,Human alphaherpesvirus 2 [59],30 mg/L
same,Virus rating,Human alphaherpesvirus 2 [60],2.3
same,Cytotoxicity,Homo sapiens [54],0
same,Cytotoxicity,Homo sapiens [56],0
same,Reduction,Homo sapiens [15],44%
same,Reduction,Homo sapiens [16],97%
same,Reduction,Homo sapiens [58],18%
same,Reduction,Homo sapiens [19],97%
same,Reduction,Homo sapiens [20],100%

# From ChEMBL document CHEMBL1123640, “Synthesis and antiviral activity of carbocyclic analogues of xylofuranosides of 2-amino-6-substituted-purines and 2-amino-6-substituted-8-azapurines” (1987)
